From paper PMC10895674, “First-in-Class Dual EZH2-HSP90 Inhibitor Eliciting Striking Antiglioblastoma Activity In Vitro and In Vivo” (Journal of Medicinal Chemistry, 2024) come the findings set out here.

A word on the IC50: it is the concentration that gives 50% inhibition.

Assay [1] has as its system TMZ-resistant cells (Pt3R). Nature of the assay: Cell viability CCK8 assay. As to conditions: 72 h; for IC50: Homo sapiens, CCK8, read-out: IC50, cell growth inhibitory effects. Format: cell-based, human. The text has this: The CCK8 reagent was purchased from TargetMOI (Wellesley Hills, MA) and used according to the manufacturer’s instruction.
Another assay has as its target EZH2 (Homo sapiens, UniProt Q15910). Nature of the assay: EZH2 inhibition assay (Reaction Biology Corp.). Format: biochemical. As to conditions: for IC50: 10-dose IC50 mode, 3-fold serial dilution starting at 10 μM, single experiment. As to the method:
The EZH2 inhibitory ability of the synthesized adduct was assessed by Reaction Biology Corporation Malvern, PA. (http://www.reactionbiology.com).

A further assay deals with HSP90a (Homo sapiens, UniProt P07900). Nature of the assay: In vitro Hsp90 assay (Reaction Biology Corp.). It counts as biochemical. As to conditions: for IC50: 10-dose IC50 mode, 3-fold serial dilution starting at 10 μM, single experiment, '-' read as no inhibition. As to the method: The HSP90 inhibitory activity of the synthesized adduct was assessed by Reaction Biology Corporation Malvern, PA. (http://www.reactionbiology.com).

A further assay relates to Pt#3-R-induced tumor. Nature of the assay: In vivo anti-GBM efficacy, Pt3R xenograft. As to conditions: intraperitoneally twice per week; TAZ 10 or 20 mg/kg; STA+TAZ 5+5, 10+10, 15+15 mg/kg. As to the method:
In vivo anti-GBM efficacy of compound 7 was also evaluated in this study. For the in vivo study, experimental NOD.CB17-Prkdc^scid/NCrCrl mice (8-week-old) were used and Pt3R cells (1 × 10^6) in 50 μL Dulbecco’s modified Eagle’s medium (DMEM) were injected into the back of mice. After 10 days, the tumor was detectable. […] In a nutshell, the outcome of the in vivo study ascertains that the remarkable in vitro anti-GBM activity profile of dual inhibitor 7 was translated to the in vivo potential.
Animal experiments were approved by the institutional animal care and use committee of Taipei Medical University (IACUC: LAC2022-0288). Male NOD.CB17-Prkdc^scid/NCrCrl mice (8-week-old) were purchased from BioLASCO Taiwan Co., Ltd. (Taipei, Taiwan). Pt3R cells (1 × 10^6) in 50 μL of DMEM were injected into the back of mice. Experimental mice were grouped as follows (Figure 11): DMSO (n = 5), C7–10 mg/kg (n = 4), C7–20 mg/kg (n = 6), TAZ-10 mg/kg (n = 6), TAZ-20 mg/kg (n = 8), STA-5+TAZ-5 mg/kg (n = 7), STA-10+TAZ-10 mg/kg (n = 7) and STA-15+TAZ-15 mg/kg (n = 7). After 10 days, the tumor was touchable. Mice were injected intraperitoneally with DMSO (the control group) or compounds twice per week.

EZH2, sequence (Q15910 whole entry): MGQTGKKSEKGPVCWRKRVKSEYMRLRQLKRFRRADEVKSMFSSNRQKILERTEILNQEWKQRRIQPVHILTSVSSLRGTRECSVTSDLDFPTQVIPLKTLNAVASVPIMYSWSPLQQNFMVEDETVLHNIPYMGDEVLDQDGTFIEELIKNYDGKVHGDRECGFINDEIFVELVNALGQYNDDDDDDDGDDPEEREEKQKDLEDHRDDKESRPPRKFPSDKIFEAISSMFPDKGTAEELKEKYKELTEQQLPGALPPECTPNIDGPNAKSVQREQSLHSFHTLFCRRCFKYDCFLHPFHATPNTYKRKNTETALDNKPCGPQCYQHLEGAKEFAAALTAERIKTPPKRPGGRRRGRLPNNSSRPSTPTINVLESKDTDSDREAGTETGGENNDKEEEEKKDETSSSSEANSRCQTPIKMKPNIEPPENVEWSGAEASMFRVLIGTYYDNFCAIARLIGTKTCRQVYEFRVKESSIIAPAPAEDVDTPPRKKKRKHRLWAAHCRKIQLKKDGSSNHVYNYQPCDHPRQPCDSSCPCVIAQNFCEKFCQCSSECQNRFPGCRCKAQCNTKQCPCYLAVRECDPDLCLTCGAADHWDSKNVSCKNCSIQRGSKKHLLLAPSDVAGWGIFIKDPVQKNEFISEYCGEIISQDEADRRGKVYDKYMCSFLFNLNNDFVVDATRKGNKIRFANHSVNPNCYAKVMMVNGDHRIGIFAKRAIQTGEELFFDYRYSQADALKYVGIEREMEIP
EZH2, sequence (O75530 whole entry partner): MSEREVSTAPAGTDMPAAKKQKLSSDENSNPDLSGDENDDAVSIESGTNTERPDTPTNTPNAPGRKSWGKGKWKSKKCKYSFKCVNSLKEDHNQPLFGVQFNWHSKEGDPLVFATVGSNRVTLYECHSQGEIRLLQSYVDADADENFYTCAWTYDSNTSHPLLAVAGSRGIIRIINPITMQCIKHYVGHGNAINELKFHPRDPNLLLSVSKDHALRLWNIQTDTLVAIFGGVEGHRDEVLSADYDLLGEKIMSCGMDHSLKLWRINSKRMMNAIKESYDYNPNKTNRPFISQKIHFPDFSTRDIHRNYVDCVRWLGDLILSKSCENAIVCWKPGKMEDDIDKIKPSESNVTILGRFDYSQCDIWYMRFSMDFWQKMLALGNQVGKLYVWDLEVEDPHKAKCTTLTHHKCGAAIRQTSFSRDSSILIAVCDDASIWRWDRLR
EZH2, sequence (Q15022 whole entry partner): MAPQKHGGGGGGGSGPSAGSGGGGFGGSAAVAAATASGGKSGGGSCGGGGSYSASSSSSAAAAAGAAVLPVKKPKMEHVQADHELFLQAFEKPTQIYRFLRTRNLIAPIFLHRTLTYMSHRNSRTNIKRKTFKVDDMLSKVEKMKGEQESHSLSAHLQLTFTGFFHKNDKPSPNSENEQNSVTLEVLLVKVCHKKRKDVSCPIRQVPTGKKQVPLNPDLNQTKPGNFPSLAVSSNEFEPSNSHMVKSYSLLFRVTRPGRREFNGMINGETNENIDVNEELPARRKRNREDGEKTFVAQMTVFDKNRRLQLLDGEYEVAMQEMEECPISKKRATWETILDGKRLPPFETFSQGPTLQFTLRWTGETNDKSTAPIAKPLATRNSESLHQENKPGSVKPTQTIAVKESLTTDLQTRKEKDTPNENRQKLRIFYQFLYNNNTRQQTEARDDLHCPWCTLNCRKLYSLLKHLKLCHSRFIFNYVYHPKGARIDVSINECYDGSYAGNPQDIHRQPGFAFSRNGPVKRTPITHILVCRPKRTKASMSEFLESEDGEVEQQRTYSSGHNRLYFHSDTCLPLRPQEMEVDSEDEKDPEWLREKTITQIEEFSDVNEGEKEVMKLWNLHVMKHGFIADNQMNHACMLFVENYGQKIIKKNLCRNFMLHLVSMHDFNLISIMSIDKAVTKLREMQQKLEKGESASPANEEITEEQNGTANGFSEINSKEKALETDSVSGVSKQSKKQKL
EZH2, sequence (Q09028 whole entry partner): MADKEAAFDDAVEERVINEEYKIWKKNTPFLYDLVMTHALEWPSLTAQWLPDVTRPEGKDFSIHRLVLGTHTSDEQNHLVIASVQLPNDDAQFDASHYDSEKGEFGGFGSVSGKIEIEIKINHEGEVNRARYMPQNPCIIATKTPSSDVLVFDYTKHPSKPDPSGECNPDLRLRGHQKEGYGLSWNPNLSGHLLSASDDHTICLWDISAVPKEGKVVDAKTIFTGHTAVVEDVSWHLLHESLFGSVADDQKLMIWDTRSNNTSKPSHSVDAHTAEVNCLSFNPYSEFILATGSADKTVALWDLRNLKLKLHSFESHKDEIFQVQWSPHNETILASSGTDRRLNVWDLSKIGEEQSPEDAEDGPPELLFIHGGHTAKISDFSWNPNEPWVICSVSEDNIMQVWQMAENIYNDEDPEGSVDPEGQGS
EZH2, sequence (Q6ZN18 whole entry partner): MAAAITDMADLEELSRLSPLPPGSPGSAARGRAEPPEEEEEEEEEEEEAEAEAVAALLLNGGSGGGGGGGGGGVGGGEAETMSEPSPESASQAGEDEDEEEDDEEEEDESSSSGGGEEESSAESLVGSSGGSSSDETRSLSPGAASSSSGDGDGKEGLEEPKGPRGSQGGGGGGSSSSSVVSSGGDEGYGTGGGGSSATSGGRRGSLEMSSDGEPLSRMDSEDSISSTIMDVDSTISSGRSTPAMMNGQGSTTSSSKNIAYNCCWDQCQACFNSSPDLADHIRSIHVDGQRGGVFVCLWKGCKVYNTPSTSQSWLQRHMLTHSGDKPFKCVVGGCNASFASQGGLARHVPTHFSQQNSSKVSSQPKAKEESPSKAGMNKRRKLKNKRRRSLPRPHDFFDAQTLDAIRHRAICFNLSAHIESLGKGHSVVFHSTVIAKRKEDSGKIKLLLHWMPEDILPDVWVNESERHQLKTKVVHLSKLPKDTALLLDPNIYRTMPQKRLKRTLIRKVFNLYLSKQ

Turning to `CCN(c1cc(-c2ccc(NC(=O)c3cc(C(C)C)c(O)cc3O)cc2)cc(C(=O)NCc2c(C)cc(C)[nH]c2=O)c1C)C1CCOCC1` [Compound 1, 4′-(2,4-Fihydroxy-5-isopropylbenzamido)-N-((4,6-dimethyl-2-oxo-1,2-dihydropyridin-3-yl)methyl)-5-(ethyl(tetrahydro-2H-pyran-4-yl)amino)-4-methyl-[1,1′-biphenyl]-3-carboxamide], the “cell growth inhibitory effects (in words)” value in assay [1] is given as “unable to exert cell growth inhibitory effects”. Besides, the IC50 on EZH2 was determined as 6.14 nM. Moreover, the “HSP90 inhibitory potential (in words)” value on HSP90a was “devoid of HSP90 inhibitory potential”.
Regarding `CCN(c1cc(-c2cccc(NC(=O)c3cc(C(C)C)c(O)cc3O)c2)cc(C(=O)NCc2c(C)cc(C)[nH]c2=O)c1C)C1CCOCC1` [Compound 2, 3′-(2,4-Fihydroxy-5-isopropylbenzamido)-N-((4,6-dimethyl-2-oxo-1,2-dihydropyridin-3-yl)methyl)-5-(ethyl(tetrahydro-2H-pyran-4-yl)amino)-4-methyl-[1,1′-biphenyl]-3-carboxamide], the “cell growth inhibitory effects (in words)” value in assay [1] is given as “unable to exert cell growth inhibitory effects”. In addition, on EZH2, the IC50 was 2.06 nM. At EZH2 (compound 2 vs 1), the “fold more potent in inhibiting EZH2 than counterpart 1” value turned out to be 3 fold. Besides, the “HSP90 inhibitory potential (in words)” value at HSP90a is given as “devoid of HSP90 inhibitory potential”.
For the compound `CCN(c1cc(-c2ccc(N(C)C(=O)c3cc(C(C)C)c(O)cc3O)cc2)cc(C(=O)NCc2c(C)cc(C)[nH]c2=O)c1C)C1CCOCC1` [Compound 3, 4′-(2,4-Dihydroxy-5-isopropyl-N-methylbenzamido)-N-((4,6-dimethyl-2-oxo-1,2-dihydropyridin-3-yl)methyl)-5-(ethyl(tetrahydro-2H-pyran-4-yl)amino)-4-methyl-[1,1′-biphenyl]-3-carboxamide], the IC50 in assay [1] came out at 27400 ± 1580 nM; on EZH2 it was 7.21 nM; on HSP90a it was 343 nM.
Consider `CCN(C(=O)c1cc(C(C)C)c(O)cc1O)c1ccc(-c2cc(C(=O)NCc3c(C)cc(C)[nH]c3=O)c(C)c(N(CC)C3CCOCC3)c2)cc1` [Compound 4, N-((4,6-Dimethyl-2-oxo-1,2-dihydropyridin-3-yl)methyl)-5-(ethyl(tetrahydro-2H-pyran-4-yl)amino)-4′-(N-ethyl-2,4-dihydroxy-5-isopropylbenzamido)-4-methyl-[1,1′-biphenyl]-3-carboxamide], for which the IC50 turned out to be 7.35 nM against EZH2 and 823 nM against HSP90a.
On EZH2, `CCCN(C(=O)c1cc(C(C)C)c(O)cc1O)c1ccc(-c2cc(C(=O)NCc3c(C)cc(C)[nH]c3=O)c(C)c(N(CC)C3CCOCC3)c2)cc1` [Compound 5, 4′-(2,4-Dihydroxy-5-isopropyl-N-propylbenzamido)-N-((4,6-dimethyl-2-oxo-1,2-dihydropyridin-3-yl)methyl)-5-(ethyl(tetrahydro-2H-pyran-4-yl)amino)-4-methyl-[1,1′-biphenyl]-3-carboxamide] returned a half-maximal inhibitory concentration (IC50) of 21.8 nM.
Consider `CCN(c1cc(-c2ccc(N(Cc3ccccc3)C(=O)c3cc(C(C)C)c(O)cc3O)cc2)cc(C(=O)NCc2c(C)cc(C)[nH]c2=O)c1C)C1CCOCC1` [Compound 6, 4′-(N-Benzyl-2,4-dihydroxy-5-isopropylbenzamido)-N-((4,6-dimethyl-2-oxo-1,2-dihydropyridin-3-yl)methyl)-5-(ethyl(tetrahydro-2H-pyran-4-yl)amino)-4-methyl-[1,1′-biphenyl]-3-carboxamide], for which the 50% inhibitory concentration (IC50) against EZH2 is 11.7 nM; against HSP90a it was more than 10000 nM.
With `CCN(C(=O)c1cc(C(C)C)c(O)cc1O)c1cccc(-c2cc(C(=O)NCc3c(C)cc(C)[nH]c3=O)c(C)c(N(CC)C3CCOCC3)c2)c1` [Compound 8, N-((4,6-Dimethyl-2-oxo-1,2-dihydropyridin-3-yl)methyl)-5-(ethyl(tetrahydro-2H-pyran-4-yl)amino)-3′-(N-ethyl-2,4-dihydroxy-5-isopropylbenzamido)-4-methyl-[1,1′-biphenyl]-3-carboxamide], the IC50 in assay [1] was found to be 10800 ± 1000 nM; against EZH2, 36.6 nM; against HSP90a it was 63.6 nM.
Turning to `CCCN(C(=O)c1cc(C(C)C)c(O)cc1O)c1cccc(-c2cc(C(=O)NCc3c(C)cc(C)[nH]c3=O)c(C)c(N(CC)C3CCOCC3)c2)c1` [Compound 9, 3′-(2,4-Dihydroxy-5-isopropyl-N-propylbenzamido)-N-((4,6-dimethyl-2-oxo-1,2-dihydropyridin-3-yl)methyl)-5-(ethyl(tetrahydro-2H-pyran-4-yl)amino)-4-methyl-[1,1′-biphenyl]-3-carboxamide], the “cell growth inhibitory effects (in words)” value in assay [1] is “unable to exert cell growth inhibitory effects”. Also, the IC50 against EZH2 turned out to be 40.1 nM; on HSP90a it was 9330 nM.
For `CCN(c1cc(-c2cccc(N(Cc3ccccc3)C(=O)c3cc(C(C)C)c(O)cc3O)c2)cc(C(=O)NCc2c(C)cc(C)[nH]c2=O)c1C)C1CCOCC1` [Compound 10, 3′-(N-Benzyl-2,4-dihydroxy-5-isopropylbenzamido)-N-((4,6-dimethyl-2-oxo-1,2-dihydropyridin-3-yl)methyl)-5-(ethyl(tetrahydro-2H-pyran-4-yl)amino)-4-methyl-[1,1′-biphenyl]-3-carboxamide], in that order: “unable to exert cell growth inhibitory effects”, 641 nM and 2840 nM.
In the case of `CCN(c1cc(-c2ccc(CN3CCOCC3)cc2)cc(C(=O)NCc2c(C)cc(C)[nH]c2=O)c1C)C1CCOCC1` [Tazemetostat, reference compound], the “cell growth inhibitory effects (in words)” value in assay [1] is reported as “unable to exert cell growth inhibitory effects”. The tumor growth entry in the assay on Pt#3-R-induced tumor is given as “failed to suppress tumor growth”.
